Measured values from patent US9630935B2, “Compositions for the treatment of hypertension and/or fibrosis” (Vectus Biosystems Limited, priority 2013, dated 2017).

Columns and labels:
[1] = system: spontaneous hypertensive rats (SHR); assay: Oral study in SHR on 2.2% salt diet: myocardial fibrosis, histomorphometry on Masson's trichrome stained sections; format: in vivo, rat; settings: for Fibrosis in the heart: 18 week old SHR on 2.2% salt diet, 4 weeks treatment, 500 pmol/kg/min orally, compared to controls (FIG. 16); for Histological sections from the hearts (micrographs): rats on 2.2% salt diet treated four weeks with 500 pmol/kg/min, control has extensive fibrosis (FIG. 20)
From the text: (§1) Fourteen week old SHR (on a 2.2% salt diet; Glen Forrest Stockfeeders) were randomly assigned to zero time control, test compound treatment (100 or 500 pmol/kg/min) in the drinking solution or control drinking solution (5% ethanol in deionised distilled water (n=5 each group). The rats assigned to zero time control group were anaesthetised and had their heart and kidneys harvested while rats assigned to control and test compound treatment were weighed twice weekly and had their drinking solution intake monitored to allow adjustment of the test compound concentration in the drinking solution to maintain a constant dose over the 4-week study period. Blood pressure was measured twice weekly by tail cuff plethysmography (PowerLab, ADInstruments, Castle Hill, NSW, Australia).
(§2) After 4 weeks rats were anaesthetised, and their hearts and kidneys harvested for quantitation of fibrosis.
(§3) To quantitate tissue fibrosis tissue slices ≦3 mm thick were fixed in 10% buffered formalin for 24 hours, processed and embedded in paraffin. Three micron transverse sections were stained using Masson's trichrome stain. A minimum of […] random fields at magnification ×20 from transverse sections (5 at each of 2 levels) were digitized and the degree of fibrosis determined as a percent of field area of each digitized image using Image-Pro Plus V.7 (Media Cybernetics, Bethesda, Md., USA) then averaged to determine the level of fibrosis for tissue for each rat.

[2] = system: spontaneous hypertensive rats (SHR); assay: Oral study in SHR on 2.2% salt diet: kidney interstitial fibrosis, histomorphometry on Masson's trichrome stained sections; format: in vivo, rat; settings: for Fibrosis in the kidney: 18 week old SHR on 2.2% salt diet, 4 weeks treatment, 500 pmol/kg/min orally, compared to controls (FIG. 17); for Histological sections from the kidneys (micrographs): rats on 2.2% salt diet treated four weeks with 500 pmol/kg/min, control has extensive fibrosis (FIG. 21)
From the text: as §1, §2, §3

[3] = system: spontaneous hypertensive rats (SHR); assay: Oral study in SHR on 2.2% salt diet: blood pressure by tail cuff plethysmography; format: in vivo, rat; settings: 4 weeks treatment, 100 or 500 pmol/kg/min orally in drinking solution, compared to controls (FIG. 13)
From the text: as §1

Row | SMILES | melting point [°C] | Fibrosis in the heart [1] | Fibrosis in the kidney [2] | Mean systolic blood pressure [3] | Histological sections from the hearts (micrographs) [1] | Histological sections from the kidneys (micrographs) [2] | Mean diastolic blood pressure [3]
1 | NC(=O)CCc1cc(-c2ccccc2)ccc1-c1ccnc(N)c1 [T48, 3-(4-(2-Aminopyridin-4-yl)-[1, 1′-biphenyl]-3-yl)propanamide] | 248 to 249 | decreased compared to controls | decreased compared to controls | decreased blood pressure compared to controls |  |  | 
2 | NC(=O)CCc1cc(-c2ccccc2)ccc1-c1cc(O)cc(O)c1 [T20, 3-(3,5-Dihydroxy-[1,1′:4′,1″-terphenyl]-2′-yl)propanamide] | 232 to 233 | decreased compared to controls | decreased compared to controls | decreased blood pressure compared to controls | no discrete areas of fibrosis are present | fibrosis has been reduced to thin bands incompletely surrounding some but not all tubules | 
3 | CS(=O)(=O)Nc1cccc(-c2ccc(-c3ccccc3)cc2CCC(N)=O)c1 [T1, 3-(3-(Methylsulfonamido)-[1,1′:4′,1″-terphenyl]-2′-yl)propanamide] |  | decreased compared to controls | decreased compared to controls | decreased blood pressure compared to controls | no discrete areas of fibrosis are present | fibrosis has been reduced to thin bands incompletely surrounding some but not all tubules | decreased compared to controls
4 | NC(=O)CCc1cc(-c2ccccc2)ccc1-c1cccc(NC=O)c1 [T2, 3-(3-Formamido-[1,1′:4′,1″-terphenyl]-2′-yl)propanamide] |  | decreased compared to controls | decreased compared to controls | decreased blood pressure compared to controls | no discrete areas of fibrosis are present | fibrosis has been reduced to thin bands incompletely surrounding some but not all tubules | decreased compared to controls
5 | CS(=O)(=O)Nc1cc(NS(C)(=O)=O)cc(-c2ccc(-c3ccccc3)cc2CCC(N)=O)c1 [T70, 3-(3,5-Di(methylsulfonamido)-[1,1′:4′,1″-terphenyl]-2′-yl)propanamide] |  | decreased compared to controls | decreased compared to controls | decreased blood pressure compared to controls |  |  | decreased compared to controls

Now from value to molecule, other results behind:

Row | melting point [°C] | SMILES | Fibrosis in the heart [1] | Fibrosis in the kidney [2] | Mean systolic blood pressure [3] | Histological sections from the hearts (micrographs) [1] | Histological sections from the kidneys (micrographs) [2] | Mean diastolic blood pressure [3]
6 | 250 to 251 | NC(=O)CCc1cc(-c2ccccc2)ccc1-c1ccc2[nH]c(=O)[nH]c2c1 [T31, 3-(4-(2-Oxo-2,3-dihydro-1H-benzo[d]imidazol-5-yl)-[1,1′-biphenyl]-3-yl)propanamide] | decreased compared to controls | decreased compared to controls | decreased blood pressure compared to controls | no discrete areas of fibrosis are present | fibrosis has been reduced to thin bands incompletely surrounding some but not all tubules | decreased compared to controls
7 | 219 to 222 | NC(=O)CCc1cc(-c2ccccc2)ccc1-c1ccc2c(c1)NC(=O)C2 [T25, 3-(4-(2-Oxoindolin-6-yl)-[1,1′-biphenyl]-3-yl)propanamide] |  |  |  |  |  | 
